Laboratory results published in ChEMBL document CHEMBL5046301, “pH-Responsive Antimicrobial Peptide with Selective Killing Activity for Bacterial Abscess Therapy” (J Med Chem, 2022).
Activity calls are given as the source filed them. The rule behind the calls is not given here.

Experiments:
[1] = tested on: Staphylococcus aureus; experiment: Antibacterial activity against methicillin-resistant Staphylococcus aureus ATCC 43300 assessed as inhibition of bacterial growth at pH 6.5 incubated for 24 hrs by NCCLS protocol based method; type: functional
[2] = tested on: Escherichia coli; experiment: Antibacterial activity against Escherichia coli ATCC 25922 assessed as inhibition of bacterial growth at pH 7.4 incubated for 24 hrs by NCCLS protocol based method; type: functional
[3] = tested on: Staphylococcus aureus; experiment: Antibacterial activity against Staphylococcus aureus ATCC 25923 assessed as inhibition of bacterial growth at pH 6.5 incubated for 24 hrs by NCCLS protocol based method; type: functional
[4] = tested on: Pseudomonas aeruginosa; experiment: Antimicrobial activity against Pseudomonas aeruginosa ATCC 27853 assessed as reduction in bacterial growth at pH 6.5 in presence of FeCl3; type: functional, organism-based
[5] = tested on: Mus musculus; experiment: Antiinflammatory activity in ICR cutaneous abscess mouse model assessed as reduction in TNF-alpha expression in serum at 5 mg/kg,ip administered twice a day measured after 72 hrs by ELISA (reference value: 1.01 +/ 0.46 10^3 pg/ml); type: functional
[6] = tested on: Pseudomonas aeruginosa; experiment: Antimicrobial activity against Pseudomonas aeruginosa ATCC 27853 assessed as reduction in bacterial growth at pH 6.5 in presence of NH4Cl; type: functional, organism-based
[7] = tested on: Pseudomonas aeruginosa; experiment: Antimicrobial activity against Pseudomonas aeruginosa ATCC 27853 infected in ICR cutaneous abscess mouse model assessed as reduction in necrotic tissue area in infection site at 5 mg/kg,ip administered twice a day measured after 3 days by hematoxylin and eosin staining based analysis; type: functional, organism-based; details: time 3.0 day
[8] = tested on: Staphylococcus epidermidis; experiment: Antibacterial activity against Staphylococcus epidermidis ATCC 12228 assessed as inhibition of bacterial growth at pH 6.5 incubated for 24 hrs by NCCLS protocol based method; type: functional
[9] = tested on: Staphylococcus aureus; experiment: Antibacterial activity against methicillin-resistant Staphylococcus aureus ATCC 43300 assessed as inhibition of bacterial growth at pH 7.4 incubated for 24 hrs by NCCLS protocol based method; type: functional
[10] = tested on: Pseudomonas aeruginosa; experiment: Antibacterial activity against Pseudomonas aeruginosa ATCC 27853 assessed as inhibition of bacterial growth at pH 7.4 incubated for 24 hrs by NCCLS protocol based method; type: functional
[11] = tested on: Pseudomonas aeruginosa; experiment: Antimicrobial activity against Pseudomonas aeruginosa ATCC 27853 assessed as reduction in bacterial growth at pH 6.5 in presence of KCl; type: functional, organism-based
[12] = tested on: Salmonella typhimurium; experiment: Antibacterial activity against Salmonella enterica subsp. enterica serovar Typhimurium C77-31 assessed as inhibition of bacterial growth at pH 6.5 incubated for 24 hrs by NCCLS protocol based method; type: functional
[13] = tested on: Pseudomonas aeruginosa; experiment: Induction of morphological changes in Pseudomonas aeruginosa ATCC 27853 assessed as disruption in cell membrane at 2 uM at pH 7.4 incubated for 1 hr by SEM analysis; type: functional, organism-based
[14] = tested on: Pseudomonas aeruginosa; experiment: Antipseudomonal activity against Pseudomonas aeruginosa ATCC 27853 infected in ICR cutaneous abscess mouse model assessed as fold reduction in lesion area at 5 mg/kg,ip administered twice a day measured after 72 hrs relative to control; type: functional
[15] = tested on: Lipopolysaccharide (LPS); experiment: Displacement of BODIPY-TR-cadaverin from Pseudomonas aeruginosa ATCC 27316 Lipopolysaccharide at 1 to 64 uM at pH 6.5 incubated for 1 hr by fluorescence based analysis relative to control; details: dose 1-64 µM
[16] = tested on: Lipopolysaccharide (LPS); experiment: Displacement of BODIPY-TR-cadaverin from Pseudomonas aeruginosa ATCC 27316 Lipopolysaccharide at 1 to 64 uM at pH 7.4 incubated for 1 hr by fluorescence based analysis relative to control; details: dose 1-64 µM
[17] = tested on: Escherichia coli; experiment: Antibacterial activity against Escherichia coli ATCC 25922 assessed as inhibition of bacterial growth at pH 6.5 incubated for 24 hrs by NCCLS protocol based method; type: functional
[18] = tested on: Salmonella typhimurium; experiment: Antibacterial activity against Salmonella enterica subsp. enterica serovar Typhimurium C77-31 assessed as inhibition of bacterial growth at pH 7.4 incubated for 24 hrs by NCCLS protocol based method; type: functional
[19] = tested on: Pseudomonas aeruginosa; experiment: Antimicrobial activity against Pseudomonas aeruginosa ATCC 27853 infected in ICR cutaneous abscess mouse model assessed as complete epidermis structure at 5 mg/kg,ip administered twice a day measured after 3 days by hematoxylin and eosin staining based analysis; type: functional, organism-based; details: time 3.0 day
[20] = tested on: Pseudomonas aeruginosa; experiment: Antimicrobial activity against Pseudomonas aeruginosa ATCC 27853 assessed as reduction in bacterial growth at pH 6.5 in presence of MgCl2; type: functional
[21] = Hemolytic activity in human RBC assessed as hemoglobin release at pH 7.4 incubated for 1 hr; type: toxicity, cell-based; details: erythrocyte, pH 7.4, 1 h
[22] = tested on: Cell membrane; experiment: Induction of cytoplasmic membrane depolarization in Pseudomonas aeruginosa ATCC 27853 assessed as increase in fluorescence intensity at acidic and alkaline pH by DiSC3-5 dye based fluorescence assay; type: subcellular; details: TDE = time-dependent effect
[23] = tested on: Pseudomonas aeruginosa; experiment: Induction of morphological changes in Pseudomonas aeruginosa ATCC 27853 assessed as plasma membrane collapse at 2 uM at pH 7.4 incubated for 1 hr by TEM analysis; type: functional, organism-based
[24] = tested on: Staphylococcus aureus; experiment: Antibacterial activity against Staphylococcus aureus ATCC 25923 assessed as inhibition of bacterial growth at pH 7.4 incubated for 24 hrs by NCCLS protocol based method; type: functional
[25] = tested on: Mus musculus; experiment: Antiinflammatory activity in ICR cutaneous abscess mouse model assessed as reduction in IL-2 expression in serum at 5 mg/kg,ip administered twice a day measured after 72 hrs by ELISA (reference value: 1.53 +/ 0.06 10^3pg/ml); type: functional
[26] = tested on: Pseudomonas aeruginosa; experiment: Antimicrobial activity against Pseudomonas aeruginosa ATCC 27853 assessed as reduction in bacterial growth at pH 6.5 in presence of CaCl2; type: functional, organism-based
[27] = tested on: Pseudomonas aeruginosa; experiment: Antimicrobial activity against Pseudomonas aeruginosa ATCC 27853 assessed as reduction in bacterial growth at pH 6.5 in presence of NaCl; type: functional
[28] = tested on: Pseudomonas aeruginosa; experiment: Induction of morphological changes in Pseudomonas aeruginosa ATCC 27853 assessed as change in intracellular contents at 2 uM at pH 6.5 incubated for 1 hr by TEM analysis; type: functional, organism-based
[29] = tested on: Pseudomonas aeruginosa; experiment: Induction of morphological changes in Pseudomonas aeruginosa ATCC 27853 assessed as change in intracellular contents at 2 uM at pH 7.4 incubated for 1 hr by TEM analysis; type: functional, organism-based
[30] = tested on: Staphylococcus aureus; experiment: Antibacterial activity against Staphylococcus aureus ATCC 29213 assessed as inhibition of bacterial growth at pH 6.5 incubated for 24 hrs by NCCLS protocol based method; type: functional
[31] = tested on: Staphylococcus epidermidis; experiment: Antibacterial activity against Staphylococcus epidermidis ATCC 12228 assessed as inhibition of bacterial growth at pH 7.4 incubated for 24 hrs by NCCLS protocol based method; type: functional
[32] = tested on: Pseudomonas aeruginosa; experiment: Antimicrobial activity against Pseudomonas aeruginosa ATCC 27853 infected in ICR cutaneous abscess mouse model assessed as reduction in colony forming units at 5 mg/kg,ip administered twice a day measured after 72 hrs (reference value: 5.08 +/ 1.84 10^10 CFU/mL ); type: functional
[33] = Cytotoxicity against mouse RAW264.7 cells assessed as inhibition of cell growth at pH 6.5 measured after 24 hrs by MTT assay; type: toxicity, cell-based
[34] = tested on: Mus musculus; experiment: Antiinflammatory activity in ICR cutaneous abscess mouse model assessed as reduction in IL-1alpha expression in serum at 5 mg/kg,ip administered twice a day measured after 72 hrs by ELISA (reference value: 9.9 +/ 0.42 10^1pg/ml); type: functional

## H-FLEHLIPHVIHGLVHAIHH-NH2
[1]
  MIC: 64 µM
[2]
  MIC: > 64 µM
[3]
  MIC: > 64 µM
[4]
  Activity: Active
[5]
  Activity: 8.14 10^2pg/ml
[6]
  Activity: Active
[7]
  Activity: Active
[8]
  MIC: > 64 µM
[9]
  MIC: > 64 µM
[10]
  MIC: > 64 µM
[11]
  Activity: inactive
[12]
  MIC: 8 µM
[13]
  Activity: inactive
[14]
  fold change (FC): 10
[15]
  Activity: 100%
[16]
  Activity: 22.9%
[17]
  MIC: 2 µM
[18]
  MIC: > 64 µM
[19]
  Activity: Active
[20]
  MIC: 2 µM
[21]
  MHC10: > 128 µM
[22]
  Activity: Tde
[23]
  Activity: inactive
[24]
  MIC: > 64 µM
[25]
  Activity: 1.15 10^3pg/ml
[26]
  Activity: Active
[27]
  MIC: 2 µM
[28]
  Activity: Active
[29]
  Activity: inactive
[30]
  MIC: > 64 µM
[31]
  MIC: > 64 µM
[32]
  Activity: 2.16 10^9CFU/ml
[33]
  IC50 at 24 h: > 128 µM
[34]
  Activity: 6.67 10^1pg/ml
